Experimental data from US20250154197A1, “LIPOLYTIC PEPTIDES” (FUNDACIÓ HOSPITAL UNIVERSITARI VALL D'HEBRON - INSTITUT DE …, priority 2021, published 2025).
[ ]: non-standard residue; d: D form.

Experiments:
3T3-L1 mouse adipocytes = test: Lipolytic activity: glycerol release in differentiated 3T3-L1 mouse adipocytes (12 h); type: cell-based; conditions: 3T3-L1 mouse adipocytes, 12 h
Description: JCRB9014-A) from Tebu-Bio (Tebu-bio, Barcelona, Spain). Briefly, mouse adipocytes (3T3-L1 cells) were cultured in 48 well plates as described previously (Saez-Lopez et al., 2020). Adipocytes were differentiated using cell culture reagents purchased from Tebu-Bio and following the manufacturer's instructions. At day of differentiation cells were treated in duplicates with vehicle (DMSO), Caffeine (100 μg/ml), and each of the peptides at the specified doses in Table 6a below. At the end of the experiment (12 h), supernatants were collected and glycerol content was measured using a Glycerol Assay Kit (Sigma) following manufacturer's instructions.

[1] = test system: human subcutaneoous mature adipocytes; test: Lipolytic activity: glycerol release in human adipocytes (Lipolysis Assay kit); type: cell-based; conditions: human subcutaneous mature adipocytes

Substance | Lipolysis Activity measured as Glycerol (μM) release in media (3T3-L1 mouse adipocytes; 1 μg/ml) | Lipolysis Activity measured as Glycerol (μM) release in media (3T3-L1 mouse adipocytes; 10 μg/ml) | Lipolysis Activity measured as Glycerol (μM) release in media (3T3-L1 mouse adipocytes; 100 μg/ml) | Lipolysis Activity measured as Glycerol (μM) release in media ([1]; 25 μg/ml) | Lipolysis Activity measured as Glycerol (μM) release in media ([1]; 50 μg/ml) | Lipolysis Activity measured as Glycerol (μM) release in media ([1]; 75 μg/ml) | Lipolysis Activity measured as Glycerol (μM) release in media ([1]; 100 μg/ml)
DPEGVIY (H-[dD][dP][dE]G[dV][dI][dY]-OH; SMILES CC[C@@H](C)[C@@H](NC(=O)[C@H](NC(=O)CNC(=O)[C@@H](CCC(=O)O)NC(=O)[C@H]1CCCN1C(=O)[C@H](N)CC(=O)O)C(C)C)C(=O)N[C@H](Cc1ccc(O)cc1)C(=O)O) [GP3D-7 I II IX, N-term NH2, C-term COOH] | 417 µM | 380 µM | 346 µM | 19.68 µM | 34.01 µM | 46.62 µM | 56.08 µM
NDPEGLY (H-[dN][dD][dP][dE]G[dL][dY]-OH; SMILES CC(C)C[C@@H](NC(=O)CNC(=O)[C@@H](CCC(=O)O)NC(=O)[C@H]1CCCN1C(=O)[C@@H](CC(=O)O)NC(=O)[C@H](N)CC(N)=O)C(=O)N[C@H](Cc1ccc(O)cc1)C(=O)O) [GP3D-DM5, N-term NH2, C-term COOH] | – | – | 326 µM | 21.84 µM | 39.18 µM | 47.07 µM | 55.12 µM
NDPEGVIY (H-[dN][dD][dP][dE]G[dV][dI][dY]-OH; SMILES CC[C@@H](C)[C@@H](NC(=O)[C@H](NC(=O)CNC(=O)[C@@H](CCC(=O)O)NC(=O)[C@H]1CCCN1C(=O)[C@@H](CC(=O)O)NC(=O)[C@H](N)CC(N)=O)C(C)C)C(=O)N[C@H](Cc1ccc(O)cc1)C(=O)O) [GP3D-DM6, N-term NH2, C-term COOH] | 304 µM | – | 405 µM | 19.83 µM | 37.09 µM | 48.37 µM | 55.19 µM
WDPEGLY (H-[dW][dD][dP][dE]G[dL][dY]-OH; SMILES CC(C)C[C@@H](NC(=O)CNC(=O)[C@@H](CCC(=O)O)NC(=O)[C@H]1CCCN1C(=O)[C@@H](CC(=O)O)NC(=O)[C@H](N)Cc1c[nH]c2ccccc12)C(=O)N[C@H](Cc1ccc(O)cc1)C(=O)O) [GP3D-DM1, N-term NH2, C-term COOH] | 356 µM | 477 µM | 324 µM | 15.94 µM | 32.98 µM | 37.78 µM | 40.28 µM
WDPEGV (H-[dW][dD][dP][dE]G[dV]-OH; SMILES CC(C)[C@@H](NC(=O)CNC(=O)[C@@H](CCC(=O)O)NC(=O)[C@H]1CCCN1C(=O)[C@@H](CC(=O)O)NC(=O)[C@H](N)Cc1c[nH]c2ccccc12)C(=O)O) [GP3D-6 I VIII IX X, N-term NH2, C-term COOH] | – | – | 360 µM | 18.07 µM | 32.53 µM | 47.82 µM | 51.90 µM
